According to US8481551B2, “Gyrase and topoisomerase IV inhibitors” (Vertex Pharmaceuticals Incorporated, priority 2011, dated 2013):
Read-outs that look alike come from different tables or passages of the source.

What was measured:
[1] = Pharmacokinetics, monkey oral study; assay type: in vivo, cynomolgus monkeys; conditions: for AUC: male, cynomolgus monkey, plasma, po, monkey plasma, label = analyte
Text: (§1) Pharmacokinetic Data Analysis.
(§2) Statistical Data Analysis.
(§3) Plasma concentration vs. time data was subjected to noncompartmental pharmacokinetic (PK) analysis.

[2] = Pharmacokinetics, rat oral study; assay type: in vivo, Sprague Dawley rats; conditions: male, Sprague Dawley, label = analyte; for Cmax: read-out: Cmax/C0
Text: as §1, §2, §3

[3] = Pharmacokinetics, monkey IV study; conditions: male, cynomolgus monkey, plasma, 5 mg/kg, Compound W dosed IV 5 mg/kg in D5W, label = analyte
Aqueous solubility study = assay type: physicochemical
Description: The aqueous solubilities of compound 23 and compound W were determined according to the following procedure.
Preparation of Samples. Aqueous samples of each compound were prepared as follows. Compounds were weighed (20-30 mg compound) in 4 ml clear vials prior to adding water (0.5 mL) and stirring by magnetic stirrer. 1.0N HCl was added to the suspension to adjust the pH to the desired range. After stirring for 96 hours at room temperature, the suspension was filtered through a 0.22 micron filter (Millipore, Ultrafree centrifugal filters, Durapore PVDF 0.22 μm, Cat# UFC30GVNB). The filtrate was collected and the pH measured with a pH meter.
Preparation of Standard Solutions. […]
Solubility Analysis. Aliquots of each sample and each standard solution were analyzed by HPLC analysis (Agilent 1100, injection volume 10 μL, wavelength 271 nm, column XTerra® Phenyl 5 μm, 4.6×50 mm, Part No. 186001144, mobile phase: A: 0.1% TFA in water 0.1% TFA in AcN). […] Standard curves were obtained by plotting the average of the peak area from the HPLC versus the concentrations of the standard solutions (with appropriate corrections of the weights of the standards based on total water content of the solid as determined by elemental analysis). The concentration of each sample was calculated from the peak area of the aqueous sample from the HPLC results and the slope and intercept of the standard curves. […]

Streptococcus pneumoniae = assay: Gyrase MIC, microdilution broth method (Protocol 1); conditions: ATCC10015
Escherichia coli = assay: Gyrase MIC against Gram negatives, microdilution broth method (Protocol 2); assay type: cell-based; conditions: Escherichia coli AG100 WT
Haemophilus influenzae = assay: as above; assay type: cell-based; conditions: Haemophilus influenzae Rd0894 (AcrA-)
[4] = 100 mg/kg, Compound W dosed PO 100 mg/kg in 0.5% MC, read-out: AUCextrap
[5] = plasma, 30 mg/kg, Compound W dosed orally 30 mg/kg in 0.5% MC
[6] = plasma, 100 mg/kg, Compound W dosed orally 100 mg/kg in 0.5% MC
[7] = plasma, 300 mg/kg, Compound W dosed orally 300 mg/kg in 0.5% MC
[8] = plasma, 300 mg/kg, Compound W dosed orally 300 mg/kg in 20% CAPT, 1% HPMC-AS, 1% PVP

CCNC(=O)Nc1nc2cc(-c3cnc(C(C)(C)O)nc3)c(F)c([C@H]3CCCO3)c2[nH]1 [Compound 23, 1-ethyl-3-[6-fluoro-5-[2-(1-hydroxy-1-methyl-ethyl)pyrimidin-5-yl]-7-[(2R)-tetrahydrofuran-2-yl]-1H-benzimidazol-2-yl]urea]
AUC ([1]; 30 mg/kg, Compound W dosed PO 30 mg/kg in 0.5% MC, read-out: AUCextrap): 24800 ng·h/mL
AUC [1, 4]: 76900 ng·h/mL
AUC ([1]; 300 mg/kg, Compound W dosed PO 300 mg/kg in 0.5% MC, read-out: AUCextrap): 155000 ng·h/mL
AUC ([2]; in vivo, 3 mg/kg, rat plasma, Compound W dosed orally 3 mg/kg in 0.5% MC, read-out: AUC): 311 ng·h/mL
Cmax ([2]; in vivo, 3 mg/kg, rat plasma, Compound W dosed orally 3 mg/kg in 0.5% MC): 117 ng/mL
AUC ([2]; in vivo, 30 mg/kg, rat plasma, Compound W dosed orally 30 mg/kg in 0.5% MC, read-out: AUC): 22500 ng·h/mL
Cmax ([2]; in vivo, 30 mg/kg, rat plasma, Compound W dosed orally 30 mg/kg in 0.5% MC): 2900 ng/mL
AUC ([2]; in vivo, 100 mg/kg, rat plasma, Compound W dosed orally 100 mg/kg in 0.5% MC, read-out: AUC): 77100 ng·h/mL
Cmax ([2]; in vivo, 100 mg/kg, rat plasma, Compound W dosed orally 100 mg/kg in 0.5% MC): 6600 ng/mL
AUC ([2]; in vivo, 300 mg/kg, rat plasma, Compound W dosed orally 300 mg/kg in 0.5% MC, read-out: AUC): 223000 ng·h/mL
Cmax ([2]; in vivo, 300 mg/kg, rat plasma, Compound W dosed orally 300 mg/kg in 0.5% MC): 11700 ng/mL
AUC ([2]; in vivo, 300 mg/kg, rat plasma, Compound W dosed orally 300 mg/kg in 20% CAPT, 1% HPMC-AS, 1% PVP, read-out: AUC): 295000 ng·h/mL
Cmax ([2]; in vivo, 300 mg/kg, rat plasma, Compound W dosed orally 300 mg/kg in 20% CAPT, 1% HPMC-AS, 1% PVP): 16200 ng/mL
AUC ([2]; plasma, 3 mg/kg, Compound W dosed orally 3 mg/kg in 0.5% MC, read-out: AUCextrap): 314 ng·h/mL
AUC ([2]; plasma, 30 mg/kg, Compound W dosed orally 30 mg/kg in 0.5% MC, read-out: AUCextrap): 22600 ng·h/mL
AUC ([2]; plasma, 100 mg/kg, Compound W dosed orally 100 mg/kg in 0.5% MC, read-out: AUCextrap): 77400 ng·h/mL
AUC ([3]; AUCextrap): 3810 ng·h/mL
Solubility (Aqueous solubility study; 96 h): <1 µg/mL

CCNC(=O)Nc1nc2cc(-c3cnc(C(C)(C)OP(=O)([O-])[O-])nc3)c(F)c([C@H]3CCCO3)c2[nH]1.[Na+].[Na+] [Compound W, disodium (R)-2-(5-(2-(3-ethylureido)-6-fluoro-7-(tetrahydrofuran-2-yl)-1H-benzo[d]imidazol-5-yl)pyrimidin-2-yl)propan-2-yl phosphate]
MIC (Streptococcus pneumoniae): 0.25 µg/mL
conversion in vivo into Compound 23 ([1]; in at least rats, dogs and monkeys (all pharmacokinetic studies)): converted in vivo into Compound 23
AUC ([1]; 30 mg/kg, Compound W dosed PO 30 mg/kg in 0.5% MC, read-out: AUC): 45.3 ng·h/mL
AUC ([1]; 100 mg/kg, Compound W dosed PO 100 mg/kg in 0.5% MC, read-out: AUC): 432 ng·h/mL
AUC [1, 4]: 437 ng·h/mL
AUC ([1]; 300 mg/kg, Compound W dosed PO 300 mg/kg in 0.5% MC, read-out: AUC): 3690 ng·h/mL
MIC (Escherichia coli): > 16 µg/mL
MIC (Haemophilus influenzae): 0.25 µg/mL
Tmax [2, 5]: 3.3 h
AUC ([2]; plasma, 30 mg/kg, Compound W dosed orally 30 mg/kg in 0.5% MC, read-out: AUC): 178 ng·h/mL
Cmax [2, 5]: 22 ng/mL
Tmax [2, 6]: 0.8 h
AUC ([2]; plasma, 100 mg/kg, Compound W dosed orally 100 mg/kg in 0.5% MC, read-out: AUC): 61 ng·h/mL
Cmax [2, 6]: 21 ng/mL
Tmax [2, 7]: 1.2 h
AUC ([2]; plasma, 300 mg/kg, Compound W dosed orally 300 mg/kg in 0.5% MC, read-out: AUC): 324 ng·h/mL
Cmax [2, 7]: 2330 ng/mL
Tmax [2, 8]: 1.8 h
AUC ([2]; plasma, 300 mg/kg, Compound W dosed orally 300 mg/kg in 20% CAPT, 1% HPMC-AS, 1% PVP, read-out: AUC): 2370 ng·h/mL
Cmax [2, 8]: 600 ng/mL
AUC ([3]; AUC): 5790 ng·h/mL
AUC ([3]; AUCextrap): 5830 ng·h/mL
solubility at 96 h (Aqueous solubility study; aqueous buffer, thermodynamic from solid, water, pH 4.39, crystalline solid form, 96 hours at room temperature): 250 µg/mL
